The supplement of paper PMC8960247
Where a name gives a salt, the structure may show the parent alone. ± gives the standard error.

Key:
621-102 (TSC2-deficient) = assay: relative viability vs DMSO; higher = less cytotoxic; conditions: serum: 10% FBS, 72 h
621-103 (TSC2-rescued) = assay: as above; conditions: serum: 10% FBS, 72 h
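Also: immortalized renal angiomyolipoma cells stably carrying empty vector or TSC2, dosed in 384-well plates in DMEM, viability normalized to vehicle-treated wells within each plate.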

| Structure (SMILES) | relative viability (621-102 (TSC2-deficient); 0.0001 µM) | relative viability (621-102 (TSC2-deficient); 0.001 µM) | relative viability (621-102 (TSC2-deficient); 0.01 µM) | relative viability (621-102 (TSC2-deficient); 0.1 µM) | relative viability (621-102 (TSC2-deficient); 1 µM) | relative viability (621-102 (TSC2-deficient); 10 µM) | relative viability (621-103 (TSC2-rescued); 0.0001 µM) | relative viability (621-103 (TSC2-rescued); 0.001 µM) | relative viability (621-103 (TSC2-rescued); 0.01 µM) | relative viability (621-103 (TSC2-rescued); 0.1 µM) | relative viability (621-103 (TSC2-rescued); 1 µM) | relative viability (621-103 (TSC2-rescued); 10 µM) |
| --- | --- | --- | --- | --- | --- | --- | --- | --- | --- | --- | --- | --- |
| C[C@]12CCC(=O)C(O)=C1CC[C@@H]1[C@@H]2CC[C@]2(C)C(=O)CC[C@@H]12 [Formestane] | 105 ± 1.1% | 113 ± 3.5% | 120 ± 4.2% | 94.73 ± 0.3% | 98.9 ± 1.5% | 109 ± 0.99% | 105 ± 4% | 102.8 ± 0.63% | 105.2 ± 0.81% | 102 ± 1.2% | 101 ± 3.9% | 102.4 ± 0.89% |
| C[C@]12CC[C@@H]3c4ccc(O)cc4C[C@@H](CCCCCCCCC[S+]([O-])CCCC(F)(F)C(F)(F)F)[C@H]3[C@@H]1CC[C@@H]2O (stereo partly specified) [Fulvestrant] | 119.5 ± 0.33% | 117.7 ± 1% | 115 ± 2.2% | 114.7 ± 0.26% | 120 ± 3.1% | 113 ± 3.3% | 104 ± 1.3% | 101.5 ± 0.32% | 100 ± 1.9% | 102.2 ± 0.13% | 103 ± 1.7% | 104 ± 1.2% |
| CS(=O)(=O)c1ccc(C(=O)Nc2ccc(Cl)c(-c3ccccn3)c2)c(Cl)c1 [GDC-0449 (Vismodegib)] | 103 ± 2.5% | 111.7 ± 0.39% | 111.9 ± 0.39% | 111 ± 2.7% | 116.2 ± 0.59% | 104 ± 1.8% | 100.4 ± 1% | 100 ± 1.6% | 103 ± 1.6% | 102.1 ± 0.15% | 103.2 ± 0.18% | 102 ± 0.43% |
| OCCn1cc(-c2ccc3c(c2)CC/C3=N\O)c(-c2ccncc2)n1 [GDC-0879] | 101.5 ± 0.2% | 102 ± 1.7% | 107 ± 2.4% | 102 ± 2.6% | 108 ± 1.7% | 92.1 ± 2% | 101.6 ± 0.87% | 97.76 ± 0.82% | 98.9 ± 1.5% | 99.06 ± 0.76% | 96.15 ± 0.42% | 100.41 ± 0.061% |
| CS(=O)(=O)N1CCN(Cc2cc3nc(-c4cccc5[nH]ncc45)nc(N4CCOCC4)c3s2)CC1 [GDC-0941] | 106 ± 1.4% | 114 ± 2.3% | 114.7 ± 0.27% | 111 ± 2.6% | 97 ± 1.1% | 53.69 ± 0.36% | 98.45 ± 0.81% | 100 ± 2.2% | 98.08 ± 0.38% | 97.2 ± 2.3% | 83.3 ± 0.97% | 37.9 ± 0.47% |
| Cc1c(CN2CCN(C(=O)[C@H](C)O)CC2)sc2c(N3CCOCC3)nc(-c3cnc(N)nc3)nc12 [GDC-0980 (RC7422)] | 101 ± 1.1% | 114 ± 1.6% | 99.9 ± 1.4% | 89.64 ± 0.5% | 39.1 ± 1% | 23.3 ± 0.98% | 100.8 ± 0.26% | 98.64 ± 0.9% | 91.5 ± 5.1% | 75.5 ± 4.4% | 35.3 ± 2.2% | 30.2 ± 2% |
| O=C(O)Cc1cccc(OCCCN(Cc2cccc(C(F)(F)F)c2Cl)CC(c2ccccc2)c2ccccc2)c1 [GW3965] | 89.3 ± 0.92% | 88.7 ± 4% | 86.8 ± 4.3% | 86.31 ± 0.36% | 77.5 ± 4% | 86.9 ± 5.4% | 107 ± 1.3% | 108 ± 3.5% | 110.7 ± 1% | 106 ± 4.5% | 99.6 ± 5.4% | 101 ± 3.5% |
| CC[N+](CC)(CC)CCOc1cccc(OCC[N+](CC)(CC)CC)c1OCC[N+](CC)(CC)CC [Gallamine triethiodide (Flaxedil)] | 105 ± 2.9% | 109.1 ± 0.49% | 103 ± 3.5% | 102.6 ± 0.87% | 103.6 ± 0.17% | 89 ± 2% | 99.9 ± 4.2% | 87.2 ± 3% | 103 ± 1.7% | 92.4 ± 3.8% | 87.3 ± 1.9% | 99.6 ± 4.1% |
| COc1cc2ncnc(Nc3ccc(F)c(Cl)c3)c2cc1OCCCN1CCOCC1 [Gefitinib] | 111 ± 1.2% | 105.6 ± 0.46% | 106.5 ± 0.3% | 96.3 ± 4.1% | 100 ± 1.1% | 84.7 ± 1.8% | 101 ± 1.8% | 101 ± 1.2% | 102 ± 1.6% | 99.7 ± 1.1% | 99.2 ± 1.2% | 76.4 ± 3.7% |
| CNC(C)C1CCC(N)C(OC2C(N)CC(N)C(OC3OCC(C)(O)C(NC)C3O)C2O)O1 (stereo unspecified) [Gentamycin sulfate (Gentacycol)] | 104 ± 4.4% | 109 ± 2.3% | 113 ± 2.6% | 109 ± 4.9% | 106.5 ± 0.17% | 91.9 ± 1.7% | 99.8 ± 1.9% | 89.3 ± 9.2% | 89.5 ± 1.6% | 94.13 ± 0.19% | 88.3 ± 7.1% | 96.9 ± 3.5% |
| CN1C2CCCC1CC(NC(=O)c1nn(C)c3ccccc13)C2 (stereo unspecified) [Granisetron HCl] | 101 ± 3.8% | 99.5 ± 1% | 94.6 ± 1.2% | 99.56 ± 0.18% | 102.3 ± 0.95% | 95.1 ± 1.5% | 105.6 ± 0.89% | 102 ± 1.7% | 106.4 ± 0.23% | 106 ± 5.2% | 103 ± 4.2% | 102 ± 3% |
| CCS(=O)(=O)Nc1ccc2c(c1)/C(=C(/Nc1ccc(CN3CCCCC3)cc1)c1ccccc1)C(=O)N2 [Hesperadin] | 105 ± 6.1% | 95.5 ± 3.5% | 77.4 ± 2.1% | 85.2 ± 1.8% | 59.2 ± 1.9% | 2.25 ± 0.32% | 100 ± 3.2% | 93.1 ± 1.2% | 97.46 ± 0.18% | 85.6 ± 0.14% | 42.75 ± 0.27% | 3.8 ± 0.2% |
| CC[C@H](c1ccc(O)cc1)[C@@H](CC)c1ccc(O)cc1 [Hexestrol (Bibenzyl)] | 105 ± 2.8% | 121 ± 3.7% | 108 ± 5.3% | 100 ± 6.5% | 113 ± 2.7% | 99.9 ± 5.4% | 89.4 ± 5.1% | 89.3 ± 4% | 90.4 ± 1% | 90 ± 2.3% | 95 ± 2.3% | 95.35 ± 0.45% |
| O=C1[C@H](Cc2ccc(O)cc2)N2C(=O)CCN(C(=O)NCc3ccccc3)[C@H]2CN1Cc1cccc2ccccc12 [ICG-001] | 116 ± 2.7% | 105.3 ± 0.41% | 106 ± 1.1% | 102 ± 4.2% | 98.9 ± 2.3% | 52.9 ± 0.89% | 105 ± 2.9% | 109 ± 7.1% | 108.7 ± 0.74% | 103 ± 1.3% | 109 ± 1.5% | 37.8 ± 0.69% |
| CCN(CC)Cc1ccc2cc(COC(=O)Nc3ccc(C(=O)NO)cc3)ccc2c1 [ITF2357] | 107 ± 6.2% | 101 ± 3.4% | 95.94 ± 0.22% | 76.42 ± 0.1% | 57.1 ± 3.5% | 25.4 ± 0.77% | 98.21 ± 0.79% | 95.5 ± 1.7% | 96 ± 2% | 67.63 ± 0.33% | 26.9 ± 0.91% | 3.1 ± 0.064% |
| CC(C)Cc1ccc(C(C)C(=O)O)cc1 (stereo unspecified) [Ibuprofen] | 102.6 ± 0.15% | 109 ± 5.4% | 114 ± 1.2% | 112.4 ± 0.85% | 106 ± 1.3% | 104 ± 3.3% | 105.8 ± 0.48% | 99.2 ± 0.35% | 101 ± 0.81% | 99.61 ± 0.82% | 98.25 ± 0.82% | 98.82 ± 0.41% |
| COc1ccc(-c2oc3c(CC=C(C)C)c(O[C@@H]4O[C@H](CO)[C@@H](O)[C@H](O)[C@H]4O)cc(O)c3c(=O)c2O[C@@H]2O[C@@H](C)[C@H](O)[C@@H](O)[C@H]2O)cc1 [Icariin] | 93.6 ± 10% | 92.7 ± 2.9% | 89.44 ± 0.27% | 102 ± 5.1% | 87.9 ± 11% | 80.99 ± 0.32% | 116 ± 1.2% | 105 ± 3.3% | 109 ± 1.2% | 101 ± 1.4% | 98.3 ± 5.3% | 116 ± 3.7% |
| Cc1ccc(NC(=O)c2ccc(CN3CCN(C)CC3)cc2)cc1Nc1nccc(-c2cccnc2)n1 [Imatinib (STI571)] | 85.09 ± 0.54% | 107 ± 2.1% | 99 ± 3.4% | 109 ± 3.3% | 108 ± 2.7% | 95.35 ± 0.94% | 94.6 ± 4.2% | 97.664 ± 0.066% | 101 ± 0.77% | 101 ± 2% | 94.4 ± 3.7% | 96.9 ± 4.7% |
